# Assay results taken from US20150322083A1, “(THIENO[2,3-b][1,5]BENZOXAZEPIN-4-YL)PIPERAZIN-1-YL COMPOUNDS AS SELECTIVE 5-HT2A INVERSE AGONISTS” (Eli Lilly and Company, priority 2014, published 2015).
# Tests used:
# [1] = target: 5-HT5 (Homo sapiens, UniProt P47898); experiment: 5-HT5 binding
# Description: (§1) Curves are evaluated using a 4-parameter logistic nonlinear equation to obtain the concentration of competitor causing 50% inhibition of radioligand binding (IC50). Equilibrium dissociation constants (Ki) are calculated according to the equation Ki=IC50/(1+L/Kd), where L equals the concentration of radioligand used in the experiment and Kd equals the equilibrium dissociation constant of the radioligand for the receptor, determined from standard saturation analysis or homologous competition experiments. Reported values for Ki, where n values are indicated, are shown as geometric mean±the standard error of the mean (SEM), with the number of replicate determinations indicated by n. Geometric means are calculated by the equation GeoMean=10̂(Average(log Ki 1+log Ki 2+ . . . log Ki n)/[…]).
# (§2) Further, the compounds of the invention may be tested in binding assays and functional activity assays by well known methods for other physiologically important receptors such as, but not limited to, the hERG channel, other serotonin receptors (specifically 5-HT1B receptors, lack of agonist activity at 5-HT2B receptors, 5-HT2C, 5-HT5, 5-HT6, and 5-HT7 receptors), dopaminergic receptors (specifically D1, D2, and D3), H1 receptors, GABAA receptors, adrenergic receptors and monoamine transporters.
# [2] = target: T1, 5-HT2A receptor (Rattus norvegicus, UniProt P14842); experiment: 5-HT2A receptor occupancy in vivo (MDL 100907 tracer); set-up: species or system male Sprague-Dawley rats; details: oral gavage, 1 hr. before tracer
# T1 construct: from tissue; host or cells: rat brain (frontal cortex vs cerebellum), in vivo
# Description: Briefly, male Sprague-Dawley rats (Harlan Sprague-Dawley, Indianapolis, Ind.) weighing approximately 230-280 g are given ad lib access to food and water until the beginning of the 3 hr. experimental protocol. 1 mg/Kg ketanserin (non-selective 5-HT2A antagonist) is used as a positive control to establish assay validity. Test compounds or control are administered by oral gavage in a vehicle comprised of 20% hydroxypropyl beta-cyclodextrin. MDL 100907 ((R)-(+)-α-(2,3-Dimethoxyphenyl)-1-[2-(4-fluorophenyl)ethyl]-4-piperidinemethanol), a selective 5-HT2A antagonist, is used as a tracer. […] It is at the time of tracer administration that receptor occupancy (RO) is considered to be measured. […] The level of MDL 100907 tracer is measured in each cortical and cerebellar sample. RO is calculated using the well-established ratio method which employs a region of high receptor density representative of total binding (frontal cortex) normalized by an area without or with very low levels of receptor (cerebellum). […]
# MDL 100907 Analysis: Cortex and cerebellar samples are weighed and placed in conical centrifuge tubes on ice. […] Standards are prepared by adding known quantities of analyte to brain tissue samples from non-treated rats and processing as described above.+− […]
# [3] = target: 5-HT7 receptors (Homo sapiens, UniProt P34969); experiment: 5-HT7 binding
# Description: as §1, §2
# Chain of 5-HT7 receptors (P34969 whole entry): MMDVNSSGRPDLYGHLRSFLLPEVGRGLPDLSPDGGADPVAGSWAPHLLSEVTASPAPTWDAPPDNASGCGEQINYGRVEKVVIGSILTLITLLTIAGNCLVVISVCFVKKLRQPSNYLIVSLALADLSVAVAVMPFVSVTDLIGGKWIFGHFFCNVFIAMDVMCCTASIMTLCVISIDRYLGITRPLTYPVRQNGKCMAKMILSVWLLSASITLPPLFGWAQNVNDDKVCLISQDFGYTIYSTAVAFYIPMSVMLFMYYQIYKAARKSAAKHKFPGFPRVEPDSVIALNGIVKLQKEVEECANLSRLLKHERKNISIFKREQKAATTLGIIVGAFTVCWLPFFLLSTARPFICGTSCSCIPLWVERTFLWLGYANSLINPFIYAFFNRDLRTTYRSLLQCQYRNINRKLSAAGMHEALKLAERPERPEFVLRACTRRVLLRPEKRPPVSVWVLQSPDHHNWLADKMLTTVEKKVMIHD
# Chain of 5-HT5 (P47898 whole entry, species assumed): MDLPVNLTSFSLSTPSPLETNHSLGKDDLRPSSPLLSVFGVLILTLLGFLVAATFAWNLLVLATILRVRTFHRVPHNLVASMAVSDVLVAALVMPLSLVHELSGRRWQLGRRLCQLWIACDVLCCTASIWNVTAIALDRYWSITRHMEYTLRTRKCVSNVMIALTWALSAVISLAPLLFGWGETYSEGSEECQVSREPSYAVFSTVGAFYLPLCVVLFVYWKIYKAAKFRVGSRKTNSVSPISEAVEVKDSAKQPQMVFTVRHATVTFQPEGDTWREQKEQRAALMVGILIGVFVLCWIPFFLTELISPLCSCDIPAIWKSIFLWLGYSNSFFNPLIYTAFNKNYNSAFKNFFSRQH
# T1 sequence (P14842 whole entry): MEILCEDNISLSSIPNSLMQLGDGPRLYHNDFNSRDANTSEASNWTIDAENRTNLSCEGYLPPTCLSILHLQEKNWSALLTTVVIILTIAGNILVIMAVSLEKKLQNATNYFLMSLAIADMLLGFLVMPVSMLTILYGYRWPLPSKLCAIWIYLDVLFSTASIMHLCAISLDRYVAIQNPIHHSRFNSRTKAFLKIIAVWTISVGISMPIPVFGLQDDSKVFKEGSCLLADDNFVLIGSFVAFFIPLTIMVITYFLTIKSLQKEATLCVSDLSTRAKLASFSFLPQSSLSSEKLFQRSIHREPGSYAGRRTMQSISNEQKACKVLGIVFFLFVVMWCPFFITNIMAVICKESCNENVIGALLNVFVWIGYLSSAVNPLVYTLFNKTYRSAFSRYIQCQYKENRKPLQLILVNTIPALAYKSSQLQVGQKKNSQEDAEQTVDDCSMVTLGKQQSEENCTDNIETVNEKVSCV
compound,measurement,setting,value
"Cc1ccc2c(c1)Oc1sc(SC(C)C)cc1C(N1CCN(CC(C)(C)C(=O)O)CC1)=N2 [Example 1, 3-[4-(2-isopropylsulfanyl-8-methyl-thieno[2,3-b][1,5]benzoxazepin-4-yl)piperazin-1-yl]-2,2-dimethyl-propanoic acid]",Ki,[1],6.71 µM
same,ED50,[2],0.54 mg/kg
same,Ki,[3],> 2.06 µM
